Laboratory results reported in ChEMBL document CHEMBL1201862, “PubChem BioAssay data set” (2004).
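Grown in 96-well plates, cells were treated for 48 hours with each compound at five concentrations. Insufficient inhibition: endpoint recorded as highest concentration tested. Here, GI50 denotes the concentration required for 50% inhibition of growth.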 Active and inactive are the calls of the source. No stated cut-off is given here; in the data, active = GI50 up to about 1.1 µM and inactive = higher.

Experiments:
Experiment in all cases: DTP human tumour cell line panel, 48 h
CAKI-1 = tested on: CAKI-1
EKVX = tested on: EKVX
HOP-62 = tested on: HOP-62
LOX IMVI = tested on: LOX IMVI
M14 = tested on: M14
Malme-3M = tested on: Malme-3M
NCI-H522 = tested on: NCI-H522
OVCAR-3 = tested on: OVCAR-3
OVCAR-5 = tested on: OVCAR-5
SF-539 = tested on: SF-539
SNB-19 = tested on: SNB-19
SNB-75 = tested on: SNB-75
SW-620 = tested on: SW-620
U-251 = tested on: U-251
UACC-257 = tested on: UACC-257
UACC-62 = tested on: UACC-62
HOP-92 = tested on: HOP-92

Measured: GI50

CC(=O)Nc1ccc(C2CC(c3ccc([N+](=O)[O-])cc3)=Nc3ccccc3S2)cc1 (stereo unspecified)
inactive: CAKI-1 24 µM | EKVX 36.8 µM | HOP-62 17.1 µM | LOX IMVI 15.5 µM | M14 13.5 µM | Malme-3M 18.3 µM | NCI-H522 > 10 µM | OVCAR-3 23.2 µM | OVCAR-5 22.2 µM | SF-539 17.7 µM | SNB-19 22.7 µM | SNB-75 12.8 µM | SW-620 16.8 µM | U-251 15.2 µM | UACC-257 15.7 µM | UACC-62 15.2 µM

CCCCCCCCC(C)CCCCCCCCC(=O)OCC(COP(=O)([O-])OCC[N+](C)(C)C)OC(=O)CCCCCCCCC(C)CCCCCCCC (stereo unspecified)
inactive: CAKI-1 > 100 µM | EKVX > 100 µM | HOP-62 > 100 µM | HOP-92 > 100 µM | LOX IMVI > 100 µM | M14 > 100 µM | Malme-3M > 100 µM | NCI-H522 > 100 µM | OVCAR-3 > 100 µM | OVCAR-5 > 100 µM | SNB-19 > 100 µM | SNB-75 > 100 µM | SW-620 > 100 µM | U-251 > 100 µM | UACC-257 > 100 µM | UACC-62 > 100 µM

Cc1ccc(NC(=O)CC(=O)n2nc(C)c(/N=N/c3ccccc3C(=O)O)c2C)cc1
inactive: CAKI-1 > 100 µM | EKVX > 100 µM | HOP-62 > 100 µM | LOX IMVI > 100 µM | M14 > 100 µM | Malme-3M > 100 µM | NCI-H522 > 100 µM | OVCAR-3 > 100 µM | OVCAR-5 > 100 µM | SF-539 > 100 µM | SNB-19 > 100 µM | SNB-75 89.1 µM | SW-620 > 100 µM | U-251 > 100 µM | UACC-257 > 100 µM | UACC-62 > 100 µM

Cc1[nH]c2ccccc2c1C1Cc2ccccc2N1C(=O)/C=C/C(=O)O (stereo unspecified)
inactive: CAKI-1 > 100 µM | EKVX > 100 µM | HOP-62 > 100 µM | LOX IMVI > 100 µM | M14 > 100 µM | Malme-3M > 100 µM | NCI-H522 > 100 µM | OVCAR-3 > 100 µM | OVCAR-5 > 100 µM | SF-539 > 100 µM | SNB-19 > 100 µM | SNB-75 > 100 µM | SW-620 > 100 µM | U-251 > 100 µM | UACC-257 > 100 µM | UACC-62 > 100 µM

O=C(CSc1nnc(-c2ccc(/N=C\c3ccc(Cl)cc3)cc2)o1)Nc1cccc(Cl)c1
inactive: EKVX > 100 µM | HOP-62 > 100 µM | LOX IMVI > 100 µM | M14 > 100 µM | Malme-3M > 100 µM | NCI-H522 36.1 µM | SNB-19 > 100 µM | SNB-75 > 100 µM | SW-620 > 100 µM | U-251 > 100 µM | UACC-257 > 100 µM | UACC-62 > 100 µM

Cc1ccccc1N1C(=O)/C(=C/c2ccc(N(CCC#N)CCC#N)cc2)N=C1c1cc([N+](=O)[O-])ccc1Cl
inactive: CAKI-1 > 100 µM | HOP-62 25.6 µM | M14 > 100 µM | Malme-3M > 100 µM | NCI-H522 > 100 µM | OVCAR-3 59.3 µM | OVCAR-5 42.1 µM | SF-539 > 100 µM | SNB-19 > 100 µM | SNB-75 > 100 µM | SW-620 > 100 µM | U-251 36 µM | UACC-257 > 100 µM | UACC-62 22.5 µM

Cn1nc(-c2ccccc2)c(C(=O)/C=C/c2ccccc2)c(N2CCOCC2)c1=O
inactive: EKVX > 10 µM | HOP-62 37.2 µM | HOP-92 5.06 µM | LOX IMVI 21.6 µM | M14 20.9 µM | NCI-H522 12.9 µM | SF-539 15.9 µM | SNB-19 > 10 µM | SW-620 28.9 µM | U-251 15.4 µM | UACC-62 19.8 µM

CCOC(=O)NC(=O)c1cn(CCN2CCN(C(=O)NCCCCCCNC(=O)N3CCN(CCn4cc(C(=O)NC(=O)OCC)c(=O)n(CCN(CC)CC)c4=O)CC3)CC2)c(=O)n(CCC(CC)CC)c1=O
inactive: EKVX > 100 µM | HOP-62 > 100 µM | HOP-92 > 100 µM | LOX IMVI > 100 µM | M14 > 100 µM | Malme-3M > 100 µM | NCI-H522 > 100 µM | OVCAR-3 > 100 µM | OVCAR-5 > 100 µM | SF-539 > 100 µM | SNB-19 > 100 µM | SNB-75 > 100 µM | SW-620 > 100 µM | U-251 > 100 µM | UACC-257 > 100 µM | UACC-62 > 100 µM

CN(C)c1snc2c1c(=O)n(C)c(=O)n2C
inactive: CAKI-1 > 100 µM | EKVX 40.1 µM | HOP-62 > 100 µM | LOX IMVI > 100 µM | Malme-3M > 100 µM | NCI-H522 > 100 µM | OVCAR-3 > 100 µM | OVCAR-5 > 100 µM | SF-539 > 100 µM | SNB-19 > 100 µM | SNB-75 35.7 µM | SW-620 > 100 µM | U-251 > 100 µM | UACC-257 > 100 µM | UACC-62 > 100 µM

O=[N+]([O-])c1cc(Cl)ccc1OCc1ccccc1
inactive: EKVX 27.2 µM | HOP-62 52 µM | HOP-92 34 µM | LOX IMVI 40.8 µM | M14 83.6 µM | Malme-3M 99.3 µM | OVCAR-3 33 µM | SF-539 57.3 µM | SNB-75 20.6 µM | SW-620 > 100 µM | U-251 42.2 µM | UACC-257 45.3 µM | UACC-62 > 100 µM

CC(=O)c1cccc(NC(=O)C(=O)C(C2OC(=O)c3ccccc32)[N+](=O)[O-])c1 (stereo unspecified)
inactive: CAKI-1 > 100 µM | EKVX > 100 µM | HOP-62 > 100 µM | HOP-92 > 100 µM | LOX IMVI > 100 µM | M14 > 100 µM | Malme-3M > 100 µM | OVCAR-3 > 100 µM | OVCAR-5 > 100 µM | SF-539 > 100 µM | SNB-19 > 100 µM | SNB-75 > 100 µM | SW-620 > 100 µM | U-251 > 100 µM | UACC-257 > 100 µM | UACC-62 > 100 µM

OC1c2ccccc2C2C(O)c3ccccc3C12 (stereo unspecified)
inactive: CAKI-1 > 100 µM | EKVX > 100 µM | HOP-62 > 100 µM | HOP-92 > 100 µM | LOX IMVI > 100 µM | M14 > 100 µM | Malme-3M > 100 µM | NCI-H522 > 100 µM | OVCAR-3 > 100 µM | OVCAR-5 > 100 µM | SF-539 > 100 µM | SNB-75 89.5 µM | SW-620 > 100 µM | U-251 > 100 µM | UACC-257 > 100 µM | UACC-62 > 100 µM

O=C(O)CS [THIOGLYCOLIC ACID]
inactive: CAKI-1 > 100 µM | EKVX > 100 µM | HOP-92 > 100 µM | LOX IMVI > 100 µM | Malme-3M > 100 µM | NCI-H522 > 100 µM | OVCAR-5 > 100 µM | SF-539 > 100 µM | SNB-19 > 100 µM | SNB-75 > 100 µM | SW-620 > 100 µM | U-251 > 100 µM | UACC-257 > 100 µM | UACC-62 > 100 µM
